# Results reported in patent US20100104546A1, “MODULATORS OF ANTIGEN-DEPENDENT T CELL PROLIFERATION” (CHILDREN, YOUTH AND WOMEN'S HEALTH SERVICE, priority 2007, published 2010).
# Tested on: splenocytes
# Test: Ex-vivo antigen (SRBC)-dependent splenocyte proliferation after administration to SRBC-immunized mice (thymidine incorporation)
# Format: in vivo, Balb/c mice
# Settings: ip in mouse serum, between 10-80 mg/kg
# Method: Mice were immunized with SRBC for 5 days. β-oxa-21:3n-3 was delivered in DMSO and injected intraperitoneally at the indicated doses. After 2 h spleens were removed and single cell suspensions were prepared. The splenocytes were cultured for 3 days in the presence (□), or absence (▪) of SRBC. Thymidine incorporation for final 16 hours of culture was determined. The data is expressed as mean±SEM of 3 separate experiments each in triplicate.
# Mice were immunized with SRBC for 5 days. Then β-oxa-21:3n-3 dissolved in syngeneic mouse serum and injected intraperitoneally (A), intravenously (B) or gavaged/orally (C) at the indicated concentrations. After 2 h spleens were removed, single cell suspensions prepared and the splenocytes cultured for 3 days in the presence (▪), or absence (□) of SRBC. Thymidine incorporation for final 16 hours of culture was determined. The data is presented as the mean±SEM of 3 separate experiments separate experiments, each in quintuplets.
# Mice were immunized with SRBC. After 5 days they were given β-thia-21:3n-3 at the indicated doses i.p. After 2 hours the spleens were removed and processed into single cell suppressions. These were then cultured in the presence (□), or absence of (▪) of SRBC to assess the proliferation. The results are expressed as mean±SEM of 3 experiments. (B) Effect of β-oxa-21:3n-3 on tetanus toxoid (TT)-induced ex vivo lymphocyte responses. Mice were immunized with TT subcutaneously and after 7 days were given β-oxa-21:3n-3 in mouse serum, intraperitoneally. Two hours later the spleen removed, single cell suspension prepared and examined for lymphoproliferation responses to TT in 5 day cultures. The results are expressed as mean±SEM of 3 experiments.
# 6-7 weeks old Balb/c mice were injected subcutaneously with 100 μl of 10% sheep red blood cells (IMVS, Inc., Adelaide, Australia) After 5 days 100 ul of β-oxa-21:3n-3 at indicated amounts were injected intraperitoneally, intravenously or gavaged orally. In another experimental set up mice were given β-tha-21:3n-3 i.p. In a third approach mice were infected subcutaneously with 100 μl of Tetanus Toxoid (2,500 Lf/ml). Then 7 days later were given β-oxa-21:3n-3. At indicated time points mice were sacrificed and spleens were removed. Single cell suspensions were prepared and white blood cells (WBC) were enriched by passing through Ficoll-Paque Plus (GE Healthcare). Cells were washed with RPMI-1640 containing 10% fetal bovine serum, 10 mM Hepes, antibiotics and glutamine (RPMI-10) and counted using an automated Cell-Dyne 3500R (Abbott, Inc. MA) instrument. Cells were viable (>98%) as judged by trypan blue exclusion. (β-oxa-21:3n-3)- or vehicle-treated mouse samples (200,000/well) were mixed either with SRBC (600,000/well) with 100 μl of Tetanus toxoid (50 Lf/ml) or phytohaemaglutinin (PHA) (2 μg/ml) or with PHA plus phorbol myristate acetate (PMA) (10 ng/ml) or with PMA plus calcium ionophore A23187 ([…]). Cells were cultured in 96 well U bottom plates (Nunc, Inc. Denmark) for 3 days (except for TT −5 days) at 37° C. under humidified air containing 5% CO2. At some instances 50 μl of supernatants were transferred to a new plate and frozen immediately at −70° C. to be used for cytokine measurements. Thymidine (50 μl, 1 μCi/well) was added at final 16 hours of culture. Cells were harvested and thymidine incorporation was determined using a beta scintillation counter.
substance,measurement,value
β-thia-21:3n-3,lymphoproliferative response to SRBC,inhibition of the lymphoproliferative response in a dose dependent manner
